Earlier results as cited in patent US20250177336A1 (RX BANDZ, INC., priority 2023, published 2025).

Settings: zwitterionic form predominates

- isoelectric point: ~7.3 pH
SMILES: NC[C@H]1CC[C@H](C(=O)O)CC1 [TXA, Tranexamic acid]
